Measured values taken from PubChem BioAssay (NCI).
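Interpolation was linear, between the two tested concentrations surrounding the appropriate level; five concentrations were tested over 48 hours in 96-well plates. Here, GI50 denotes the concentration required for 50% inhibition of growth. TGI marks complete inhibition of growth.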

Key:
Assay in all cases: growth of human tumour cells (NCI), 48 h
SF-295 CNS = test system: SF-295 CNS
T-47D breast = test system: T-47D breast
OVCAR-4 ovarian = test system: OVCAR-4 ovarian
NCI-H226 lung = test system: NCI-H226 lung
HOP-62 NSCLC = test system: HOP-62 NSCLC
U251 CNS = test system: U251 CNS
KM12 colon = test system: KM12 colon
MCF7 breast = test system: MCF7 breast
EKVX NSCLC = test system: EKVX NSCLC
A498 renal = test system: A498 renal
CAKI-1 renal = test system: CAKI-1 renal
SK-OV-3 ovarian = test system: SK-OV-3 ovarian
COLO 205 colon = test system: COLO 205 colon
SF-268 CNS = test system: SF-268 CNS
OVCAR-3 ovarian = test system: OVCAR-3 ovarian
NCI-H522 lung = test system: NCI-H522 lung
SK-MEL-5 melanoma = test system: SK-MEL-5 melanoma
MALME-3M melanoma = test system: MALME-3M melanoma
RPMI-8226 leukemia = test system: RPMI-8226 leukemia
SK-MEL-2 melanoma = test system: SK-MEL-2 melanoma
CCRF-CEM leukemia = test system: CCRF-CEM leukemia
MOLT-4 leukemia = test system: MOLT-4 leukemia
MDA-MB-435 = test system: MDA-MB-435
DU-145 prostate = test system: DU-145 prostate
NCI-H23 lung = test system: NCI-H23 lung
PC-3 prostate = test system: PC-3 prostate
LOX IMVI melanoma = test system: LOX IMVI melanoma
ACHN renal = test system: ACHN renal
SF-539 CNS = test system: SF-539 CNS
K-562 leukemia = test system: K-562 leukemia
NCI-H460 lung = test system: NCI-H460 lung
BT-549 breast = test system: BT-549 breast
TK-10 renal = test system: TK-10 renal
M14 melanoma = test system: M14 melanoma
786-0 renal = test system: 786-0 renal
OVCAR-5 ovarian = test system: OVCAR-5 ovarian
SNB-75 CNS = test system: SNB-75 CNS
UACC-62 melanoma = test system: UACC-62 melanoma
MDA-MB-231 breast = test system: MDA-MB-231 breast
OVCAR-8 ovarian = test system: OVCAR-8 ovarian
HCT-116 colon = test system: HCT-116 colon
HCC-2998 colon = test system: HCC-2998 colon
HT29 colon = test system: HT29 colon
UO-31 renal = test system: UO-31 renal
SW-620 colon = test system: SW-620 colon
HOP-92 NSCLC = test system: HOP-92 NSCLC
SK-MEL-28 melanoma = test system: SK-MEL-28 melanoma
SN12C renal = test system: SN12C renal
SNB-19 CNS = test system: SNB-19 CNS
HS 578T breast = test system: HS 578T breast
HCT-15 colon = test system: HCT-15 colon
A549 NSCLC = test system: A549 NSCLC

Q: With CC(=O)/C=C/C1=C(c2ccsc2)c2ccccc2CC1 as the molecule, how does the GI50 (SF-295 CNS) read?
A: 19.3 µM

Q: What about the TGI (SF-295 CNS) of the same molecule?
A: 49.7 µM

Q: What about the GI50 (T-47D breast) of the same molecule?
A: 66 µM

Q: What about the TGI (T-47D breast) of the same molecule?
A: > 100 µM

Q: What about the GI50 (OVCAR-4 ovarian) of the same molecule?
A: > 100 µM

Q: And the TGI (OVCAR-4 ovarian)?
A: > 100 µM

Q: What about the GI50 (NCI-H226 lung) of the same molecule?
A: 18.8 µM

Q: And the TGI (NCI-H226 lung)?
A: 44.4 µM

Q: What about the GI50 (HOP-62 NSCLC) of the same molecule?
A: 26.1 µM

Q: What about the TGI (HOP-62 NSCLC) of the same molecule?
A: 66.8 µM

Q: And the GI50 (U251 CNS)?
A: 22.1 µM

Q: What about the TGI (U251 CNS) of the same molecule?
A: 48.8 µM

Q: What about the GI50 (KM12 colon) of the same molecule?
A: 17.2 µM

Q: And the TGI (KM12 colon)?
A: 33 µM

Q: What about the GI50 (MCF7 breast) of the same molecule?
A: 21.4 µM

Q: And the TGI (MCF7 breast)?
A: 40 µM

Q: What about the GI50 (EKVX NSCLC) of the same molecule?
A: 35.9 µM

Q: What about the TGI (EKVX NSCLC) of the same molecule?
A: > 100 µM

Q: And the GI50 (A498 renal)?
A: 24.7 µM

Q: What about the TGI (A498 renal) of the same molecule?
A: 69.7 µM

Q: And the GI50 (CAKI-1 renal)?
A: 27.7 µM

Q: And the TGI (CAKI-1 renal)?
A: 83.4 µM

Q: And the GI50 (SK-OV-3 ovarian)?
A: 64.4 µM

Q: And the TGI (SK-OV-3 ovarian)?
A: > 100 µM

Q: And the GI50 (COLO 205 colon)?
A: 36.5 µM

Q: And the TGI (COLO 205 colon)?
A: > 100 µM

Q: What about the GI50 (SF-268 CNS) of the same molecule?
A: 19.5 µM

Q: And the TGI (SF-268 CNS)?
A: 41.1 µM

Q: What about the GI50 (OVCAR-3 ovarian) of the same molecule?
A: 19.4 µM

Q: What about the TGI (OVCAR-3 ovarian) of the same molecule?
A: 39.7 µM

Q: And the GI50 (NCI-H522 lung)?
A: 15.3 µM

Q: And the TGI (NCI-H522 lung)?
A: 31.3 µM

Q: What about the GI50 (SK-MEL-5 melanoma) of the same molecule?
A: 16.3 µM

Q: What about the TGI (SK-MEL-5 melanoma) of the same molecule?
A: 31.6 µM

Q: And the GI50 (MALME-3M melanoma)?
A: 23.6 µM

Q: What about the TGI (MALME-3M melanoma) of the same molecule?
A: 58.1 µM

Q: And the GI50 (RPMI-8226 leukemia)?
A: 23.2 µM

Q: What about the TGI (RPMI-8226 leukemia) of the same molecule?
A: 47.6 µM

Q: And the GI50 (SK-MEL-2 melanoma)?
A: 21.2 µM

Q: And the TGI (SK-MEL-2 melanoma)?
A: 38 µM

Q: What about the GI50 (CCRF-CEM leukemia) of the same molecule?
A: 23.6 µM

Q: And the TGI (CCRF-CEM leukemia)?
A: 47.6 µM

Q: What about the GI50 (MOLT-4 leukemia) of the same molecule?
A: 17.6 µM

Q: And the TGI (MOLT-4 leukemia)?
A: 37.1 µM

Q: And the GI50 (MDA-MB-435)?
A: 17.9 µM

Q: What about the TGI (MDA-MB-435) of the same molecule?
A: 33.8 µM

Q: What about the GI50 (DU-145 prostate) of the same molecule?
A: 40.8 µM

Q: And the TGI (DU-145 prostate)?
A: > 100 µM

Q: What about the GI50 (NCI-H23 lung) of the same molecule?
A: 20.3 µM

Q: What about the TGI (NCI-H23 lung) of the same molecule?
A: 39.6 µM

Q: What about the GI50 (PC-3 prostate) of the same molecule?
A: 23.9 µM

Q: What about the TGI (PC-3 prostate) of the same molecule?
A: 65.3 µM

Q: What about the GI50 (LOX IMVI melanoma) of the same molecule?
A: 17.9 µM

Q: What about the TGI (LOX IMVI melanoma) of the same molecule?
A: 31.9 µM

Q: And the GI50 (ACHN renal)?
A: 25.9 µM

Q: What about the TGI (ACHN renal) of the same molecule?
A: 61.1 µM

Q: And the GI50 (SF-539 CNS)?
A: 25.1 µM

Q: What about the TGI (SF-539 CNS) of the same molecule?
A: 60.7 µM

Q: What about the GI50 (K-562 leukemia) of the same molecule?
A: 21.3 µM

Q: And the TGI (K-562 leukemia)?
A: 44 µM

Q: And the GI50 (NCI-H460 lung)?
A: 34.4 µM

Q: And the TGI (NCI-H460 lung)?
A: > 100 µM

Q: What about the GI50 (BT-549 breast) of the same molecule?
A: 29.5 µM

Q: And the TGI (BT-549 breast)?
A: 69.3 µM

Q: And the GI50 (TK-10 renal)?
A: 33.6 µM

Q: And the TGI (TK-10 renal)?
A: > 100 µM

Q: What about the GI50 (M14 melanoma) of the same molecule?
A: 17.8 µM

Q: What about the TGI (M14 melanoma) of the same molecule?
A: 37.1 µM

Q: And the GI50 (786-0 renal)?
A: 34.1 µM

Q: What about the TGI (786-0 renal) of the same molecule?
A: > 100 µM

Q: And the GI50 (OVCAR-5 ovarian)?
A: 27.1 µM

Q: And the TGI (OVCAR-5 ovarian)?
A: > 100 µM

Q: What about the GI50 (SNB-75 CNS) of the same molecule?
A: > 100 µM

Q: And the TGI (SNB-75 CNS)?
A: > 100 µM

Q: And the GI50 (UACC-62 melanoma)?
A: 16.2 µM

Q: What about the TGI (UACC-62 melanoma) of the same molecule?
A: 37.1 µM

Q: What about the GI50 (MDA-MB-231 breast) of the same molecule?
A: 19.3 µM

Q: And the TGI (MDA-MB-231 breast)?
A: 49.4 µM

Q: And the GI50 (OVCAR-8 ovarian)?
A: 18.2 µM

Q: What about the TGI (OVCAR-8 ovarian) of the same molecule?
A: 39.3 µM

Q: What about the GI50 (HCT-116 colon) of the same molecule?
A: 22.8 µM

Q: And the TGI (HCT-116 colon)?
A: 50.3 µM

Q: What about the GI50 (HCC-2998 colon) of the same molecule?
A: 18.2 µM

Q: What about the TGI (HCC-2998 colon) of the same molecule?
A: 36.2 µM

Q: What about the GI50 (HT29 colon) of the same molecule?
A: 54.3 µM

Q: What about the TGI (HT29 colon) of the same molecule?
A: > 100 µM

Q: What about the GI50 (UO-31 renal) of the same molecule?
A: 19.4 µM

Q: And the TGI (UO-31 renal)?
A: 43.6 µM

Q: And the GI50 (SW-620 colon)?
A: 33.7 µM

Q: What about the TGI (SW-620 colon) of the same molecule?
A: > 100 µM

Q: And the GI50 (HOP-92 NSCLC)?
A: 17.2 µM

Q: What about the TGI (HOP-92 NSCLC) of the same molecule?
A: 50.6 µM

Q: What about the GI50 (SK-MEL-28 melanoma) of the same molecule?
A: 49.1 µM

Q: And the TGI (SK-MEL-28 melanoma)?
A: > 100 µM

Q: What about the GI50 (SN12C renal) of the same molecule?
A: 20.9 µM

Q: And the TGI (SN12C renal)?
A: 47.2 µM

Q: And the GI50 (SNB-19 CNS)?
A: 42.5 µM

Q: What about the TGI (SNB-19 CNS) of the same molecule?
A: > 100 µM

Q: And the GI50 (HS 578T breast)?
A: 48.4 µM

Q: And the TGI (HS 578T breast)?
A: > 100 µM

Q: What about the GI50 (HCT-15 colon) of the same molecule?
A: 18.6 µM

Q: And the TGI (HCT-15 colon)?
A: 35.3 µM

Q: What about the GI50 (A549 NSCLC) of the same molecule?
A: 17.4 µM

Q: What about the TGI (A549 NSCLC) of the same molecule?
A: 37.5 µM
